This series in a line: gradient 5% acetonitrile 3 min, to 50% in 2 min, to 85% in 15 min, held 3 min, 100 µL/min. The settings on record: column: Zorbax Extend-C18 2.1 x 50 mm; eluents: water / acetonitrile, 0.1% formic acid. The method in brief:
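A Zorbax Extend-C18 column (2.1 × 50 mm, 1.8 μm) run at 100 μL/min with water and acetonitrile, both containing 0.1% formic acid, separated mixtures of ~100 pure standards. The HPLC was coupled to a quadrupole time-of-flight mass spectrometer operated in positive and negative ionization mode, with dead and dwell volumes of 40 μL and 900 μL. Each retention time was taken from a computationally picked adduct peak that was then manually inspected.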
Compound `Cc1ccc(NS(=O)(=O)c2cc3n(c2)CCN(CC(C)C)C3=O)cc1` returned an RP-LC retention time of 794 s. Next, `CC1(C)CC(=O)C2=C(C1)Nc1ccccc1N(C(=O)c1ccccc1)C2c1ccco1` (stereo not drawn): 825 s. For the compound `COc1ccc(-n2ccc(=O)c(-c3nc(-c4ccccc4OCc4ccccc4)no3)n2)cc1`, the RP-LC retention time is 984 s. Next, `Cn1c(=O)sc2cc(S(=O)(=O)N3CCC(C(=O)NCCCc4ccccc4)CC3)ccc21`: 867 s; `Cc1ccc(-c2nc(-c3ccc4ncn(C)c4c3)no2)cc1C`: 842 s; `CCn1c(C)nnc1SCc1nc(-c2ccc(OC)c(OC)c2)oc1C`: 651 s. Consider `Cc1ccc(C)c(S(=O)(=O)N2CCC3(CC2)NCCN=C3NCc2cc(F)cc(F)c2)c1`, for which the RP-LC retention time was 774 s. Next, `CN1C(=O)COc2ccc(-c3csc(NC(=O)c4ccccc4)n3)cc21`: 926 s; `O=C(Cn1cncc(-c2nc(-c3ccccc3)cs2)c1=O)N1CCCC1`: 789 s. Next, `N#Cc1cccc(NC(=O)Cn2c(=O)cc(C(=O)N3CCCC3)c3ccccc32)c1`: 690 s. Next, `OC1(c2ccccn2)CCOC2(CCN(Cc3ccccc3OC(F)(F)F)CC2)C1` (stereo not drawn): 601 s; `Cc1ccccc1NC(=O)N1CCCN(c2ccc(=O)n(-c3ccccc3)n2)CC1`: 720 s; `CCOc1ccccc1NC(=O)NCCCn1c(C(F)(F)F)nc2cccnc21`: 856 s.

As for `COc1ccc(-c2nc(-c3cn(Cc4ccc(F)cc4)nn3)no2)c(OC)c1`, the RP-LC retention time turned out to be 940 s. On to `COC(=O)c1nn(-c2ccc(C)cc2)c2c(=O)n(C)cnc12`, for which the RP-LC retention time turned out to be 707 s. The compound `COc1ccc(N2CC(c3noc(-c4ccccc4OC)n3)CC2=O)cc1` (stereo not drawn) gave an RP-LC retention time of 858 s.

For the compound `CN1c2ccc(Cl)cc2C(=O)NC12CCN(C(=O)c1cccc(F)c1)CC2`, the RP-LC retention time is 808 s. Consider `COc1ccc(-c2nn3c(-c4ccc(N(C)C)cc4)nnc3s2)cc1`, for which the RP-LC retention time turned out to be 1120 s.

Turning to `COc1ccc(-n2ccc(=O)c(-c3nc(-c4cccc(F)c4)no3)n2)cc1`, the RP-LC retention time is 868 s. Compound `CCCCN1CCN(S(=O)(=O)c2ccccc2-c2nc(-c3ccc(F)cc3)no2)CC1` had an RP-LC retention time of 752 s. As for `O=C(NC1CCCCCC1)C1CCN(C(=O)c2ncn3c2COC(c2ccc(Cl)cc2)C3)CC1` (stereo not drawn), the RP-LC retention time is 900 s. Consider `Cc1cc(NC(=O)Nc2cc(F)ccc2F)no1`, for which the RP-LC retention time was 894 s.

Compound `CCCNc1cc(N2CCC(CCC(=O)O)CC2)ncn1` had an RP-LC retention time of 600 s. `CCNC(=O)c1cc2c(-c3cc(OCCN4CCCC4)c(Cl)cc3Cl)nc(N)nc2s1` registered an RP-LC retention time of 711 s. Next, `COc1ccc(C)cc1NC(=O)CCC1CCN(c2cc(NC3CC3)ncn2)CC1`: 712 s; `CC(C)(C)NC(=O)N1CCC(CNS(=O)(=O)c2ccc(Br)s2)CC1`: 818 s. For `COC(=O)c1cnc(N2CCN(c3cccc(Cl)c3)CC2)c2ccccc12`, the RP-LC retention time is 1350 s. In turn, `CCOC(=O)C1=C(CN2CCN(CC)CC2)NC(=O)NC1c1ccc(OC)cc1` (stereo not drawn) came in with an RP-LC retention time of 599 s. Next, `O=C(Nc1ccccc1)N1CCC(n2c(-c3ccoc3)nc3cccnc32)C1` (stereo not drawn): 712 s; `Cc1cc(-c2c(C)sc(C)c2S(=O)(=O)NCCc2ccc(Cl)cc2)n[nH]1`: 1130 s. In turn, `O=C(NCc1ccc2c(c1)OCO2)C1CC(=O)N(CCc2c[nH]c3ccc(F)cc23)C1` (stereo not drawn) showed an RP-LC retention time of 766 s.

`O=P(OC1=CCCCC1)(c1ccccc1)c1ccccc1` gave an RP-LC retention time of 1030 s. Compound `CCc1ccc(NC(=O)C2(C)Oc3cccnc3NC2=O)cc1` (stereo not drawn) registered an RP-LC retention time of 770 s.

For the origin of these results see the METLIN SMRT retention time set (Domingo-Almenara et al. 2019).
